Source: US8461329B2, “Isoquinoline derivative” (Taisho Pharmaceutical Co., Ltd., priority 2008, dated 2013)
Like-named read-outs stand apart in the source and are kept apart here.

Legend:
[1] = target: T1, human CRTH2 expression cell KB8 (Homo sapiens, UniProt Q9Y5Y4); experiment: CRTH2 binding test (3H-PGD2 binding to KB8 cells); details: 3H-PGD2 5 nM, 4° C., one hour
T1 construct: host or cells: KB8 cells (human CRTH2 expression cell)
T1 sequence (Q9Y5Y4 1-395): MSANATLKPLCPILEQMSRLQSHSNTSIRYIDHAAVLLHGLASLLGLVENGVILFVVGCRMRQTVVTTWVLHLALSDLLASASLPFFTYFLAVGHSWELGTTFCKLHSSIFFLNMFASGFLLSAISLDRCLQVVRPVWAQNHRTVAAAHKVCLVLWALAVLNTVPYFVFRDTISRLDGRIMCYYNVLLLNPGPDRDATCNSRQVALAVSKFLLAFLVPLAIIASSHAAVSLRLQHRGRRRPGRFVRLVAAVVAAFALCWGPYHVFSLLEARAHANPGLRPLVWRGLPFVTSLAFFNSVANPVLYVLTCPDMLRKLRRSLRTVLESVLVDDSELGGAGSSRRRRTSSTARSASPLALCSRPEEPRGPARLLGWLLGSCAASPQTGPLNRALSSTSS
Protocol: CRTH2 binding inhibitory activity of the compound of the present invention was considered by using a binding test between human CRTH2 expression cell KB8 (BML, INC.) and ^3H-labeled prostaglandin D2 (hereinafter, abbreviated as ^3H-PGD2, manufactured by GE Healthcare).
KB8 was suspended in a reaction buffer solution (Hank's balanced salt solution (Invitrogen) containing 10 mM HEPES (Invitrogen)), which was dispensed in a 96 well plate (Coaster) so that 2×10^5 cells/well are placed. Furthermore, the compound of the present invention and ^3H-PGD2 (final concentration: 5 nM) were added, stirred, and incubated at 4° C.
One hour later, cells were collected on GF/C Filter Plate (PerkinElmer) that had been pre-coated with 0.5% polyethyleneimine solution (SIGMA) by using a Cell Harvester (Packard BioScience), and the radioactivity of the cells was measured by using Top count NXT (PerkinElmer) (a value measured herein was represented by a measurement value “a”). The same procedure was carried out in the absence of the compound, and a measurement value “b” was obtained; and the same procedure was carried out in the absence of the compound and in the presence of non-labeled PGD2 (final concentration: 50 μM), a measurement value “c” was obtained.
The binding inhibition rate of the compound was calculated by the following calculation formula: Bonding inhibitory rate(%)=[1−(a−c)/(b−c)]×100
That is to say, by using binding inhibition rates of compounds to be tested having various concentrations, the IC50 value was calculated according to a dose-dependent inhibition curve analyzed by using XLfit (IDBS) as a data analysis software, and the calculated value was defined as an indicator of the inhibitory activity. In Table 9, A denotes an inhibitory activity showing the IC50 value of less than 50 nM; B denotes an inhibitory activity showing the IC50 value of 50 nM or greater and less than 500 nM; C denotes an inhibitory activity showing the IC50 value of 500 nM or greater and less than 1000 nM; and D denotes an inhibitory activity showing the IC50 value of 1000 nM or greater.

CRTH2 (KB8 cells) = target: T2, CRTH2 (KB8 cells) (Homo sapiens, UniProt Q9Y5Y4); experiment: CRTH2 antagonist test (PGD2-induced intracellular calcium ion concentration increase in KB8 cells); format: cell-based; details: PGD2 final concentration 100 nM, Fluo-4-AM fluorescence, read-out: antagonist activity (IC50 value, inhibition of calcium ion concentration increase)
T2 construct: host or cells: KB8 cells (human CRTH2 expression cell)
T2 sequence (Q9Y5Y4 1-395): T1 sequence (Q9Y5Y4 1-395)
In short: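 Fluo-4-AM-loaded KB8 cells in HBSS with 10 mM HEPES and 1 mM CaCl2 received compound plus PGD2 (final 100 nM); peak fluorescence followed over time. Inhibition was computed against no-compound and unlabelled-PGD2 controls, and IC50 obtained from a dose-response curve.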

[2] = IC50 class, read-out: binding inhibitory activity
[3] = read-out: CRTH2 binding inhibitory activity IC50 value

## O=C(O)Cc1cnc(C(=O)c2ccc(C(=O)NCCc3ccc(Cl)cc3)cc2)c2ccccc12 [Example 135, {1-[(4-{[2-(4-chlorophenyl)ethyl]carbamoyl}phenyl)carbonyl]isoquinolin-4-yl}acetic acid]
[1]; [2]
  IC50: < 50 nM
CRTH2 (KB8 cells)
  IC50: < 50 nM

## O=C(O)Cc1cnc(C(=O)c2ccc(C(=O)NCCc3cccc(Cl)c3)cc2)c2ccccc12 [Example 139]
[1]; [2]
  IC50: < 50 nM
CRTH2 (KB8 cells)
  IC50: < 50 nM

## CN(C(=O)c1ccc(Cl)c(Cl)c1)c1ccc(C(=O)c2ncc(CC(=O)O)c3ccccc23)cc1 [Example 128, {1-[(4-{[(3,4-dichlorophenyl)carbonyl](methyl)amino}phenyl)carbonyl]isoquinolin-4-yl}acetic acid]
[1]; [2]
  IC50: 50 to 500 nM

## O=C(O)Cc1cnc(C(=O)c2ccc(NC(=O)c3ccc(Cl)c(Cl)c3)cc2)c2ccccc12 [Example 2, {1-[(4-{[(3,4-dichlorophenyl)carbonyl]amino}phenyl)carbonyl]isoquinolin-4-yl}acetic acid]
[1]; [2]
  IC50: < 50 nM
CRTH2 (KB8 cells)
  IC50: < 50 nM

## CCCCCc1ccc(C(=O)Nc2ccc(C(=O)c3ncc(CC(=O)O)c4ccccc34)cc2)cc1 [Example 57]
[1]; [2]
  IC50: < 50 nM
[1]; [3]
  IC50: 3.4 nM
CRTH2 (KB8 cells)
  IC50: < 50 nM

## O=C(O)Cc1cnc(C(=O)c2ccc(NC(=O)Cc3ccc(Cl)c(Cl)c3)cc2)c2ccccc12 [Example 3]
[1]; [2]
  IC50: < 50 nM
CRTH2 (KB8 cells)
  IC50: < 50 nM

## O=C(O)Cc1cnc(C(=O)c2ccc(NC(=O)c3ccc(-c4ccccc4)cc3)cc2)c2ccccc12 [Example 10]
[1]; [2]
  IC50: < 50 nM
CRTH2 (KB8 cells)
  IC50: < 50 nM

## O=C(O)Cc1cnc(C(=O)c2ccc(NC(=O)c3cccc(Cl)c3)cc2)c2ccccc12 [Example 27]
[1]; [2]
  IC50: < 50 nM
CRTH2 (KB8 cells)
  IC50: < 50 nM

## CN(C)c1ccc(C(=O)Nc2ccc(C(=O)c3ncc(CC(=O)O)c4ccccc34)cc2)cc1 [Example 12]
[1]; [2]
  IC50: < 50 nM
CRTH2 (KB8 cells)
  IC50: < 50 nM

## O=C(O)Cc1cnc(C(=O)c2ccc(NC(=O)c3cccc(Br)c3)cc2)c2ccccc12 [Example 75]
[1]; [2]
  IC50: < 50 nM
[1]; [3]
  IC50: 2.9 nM
CRTH2 (KB8 cells)
  IC50: < 50 nM

## O=C(O)Cc1cnc(C(=O)c2ccc(NC(=O)C3CC3)cc2)c2ccccc12 [Example 20]
[1]; [2]
  IC50: < 50 nM

## O=C(O)Cc1cnc(C(=O)c2cccc(NC(=O)c3ccc(Cl)c(Cl)c3)c2)c2ccccc12 [Example 127, {1-[(3-{[(3,4-dichlorophenyl)carbonyl]amino}phenyl)carbonyl]isoquinolin-4-yl}acetic acid]
[1]; [2]
  IC50: 50 to 500 nM

## CC(=O)Nc1ccc(C(=O)c2ncc(CC(=O)O)c3ccccc23)cc1 [Example 19]
[1]; [2]
  IC50: 50 to 500 nM

## O=C(O)Cc1cnc(C(=O)c2ccc(Cc3ccccc3)cc2)c2ccccc12 [Example 144, {1-[(4-benzyl phenyl)carbonyl]isoquinolin-4-yl}acetic acid]
[1]; [2]
  IC50: 50 to 500 nM

## O=C(O)Cc1cnc(C(=O)c2ccc(NC(=O)c3ccccn3)cc2)c2ccccc12 [Example 16]
[1]; [2]
  IC50: < 50 nM

## O=C(O)Cc1cnc(C(=O)c2ccc(NS(=O)(=O)c3ccc(Cl)c(Cl)c3)cc2)c2ccccc12 [Example 129, {1-[(4-{[(3,4-dichlorophenyl)sulfonyl]amino}phenyl)carbonyl]isoquinolin-4-yl}acetic acid]
[1]; [2]
  IC50: 50 to 500 nM

## O=C(O)Cc1cnc(C(=O)c2ccc(NC(=O)c3ccc(F)c(F)c3)cc2)c2ccccc12 [Example 35]
CRTH2 (KB8 cells)
  IC50: < 50 nM

## O=C(O)Cc1cnc(C(=O)c2ccc(NC(=O)CCC3CCCCC3)cc2)c2ccccc12 [Example 77]
CRTH2 (KB8 cells)
  IC50: < 50 nM

## O=C(O)Cc1cnc(C(=O)c2ccc(NC(=O)c3ccc4cnccc4n3)cc2)c2ccccc12 [Example 124]
CRTH2 (KB8 cells)
  IC50: 500 to 1000 nM

## O=C(O)Cc1cnc(Cc2ccc(C(=O)NCCc3ccncc3)cc2)c2ccccc12 [Example 177]
CRTH2 (KB8 cells)
  IC50: ≥ 1000 nM

## O=C(O)Cc1cnc(Cc2ccc(C(=O)NCCc3cc(F)ccc3Cl)cc2)c2ccccc12 [Example 228]
CRTH2 (KB8 cells)
  IC50: < 50 nM

## CN(C)c1ccc(CCNC(=O)c2ccc(Cc3ncc(CC(=O)O)c4ccccc34)cc2)cc1 [Example 206]
CRTH2 (KB8 cells)
  IC50: 50 to 500 nM

## O=C(O)Cc1cnc(C(=O)c2ccc(NC(=O)c3csc4ccccc34)cc2)c2ccccc12 [Example 88]
CRTH2 (KB8 cells)
  IC50: < 50 nM
